In experiment [1] the test system is Cerebral cortex cells of a rat (neuron network). Kind of experiment: Ca^2+ imaging of a neuron network. Type of experiment: cell-based. As to conditions: buffer solution (500 μl) containing 10 μM glutamic acid added; FIG. 13(b). The method, then:
Inside the 35 mm dish (a), the substrate of FIG. 6 (finished being coated by PLL) was placed. Cerebral cortex cells of a rat on day 17 of birth isolated by the enzyme trypsin were suspended by a commercially available nerve cell medium (Sumitomo Bakelite) to give 2.5×10^5 cells/ml. This cell suspension: 2 ml (=5.0×10^5 cells) was added to the dish (a). In the presence of 5% CO2, this was cultured at 37° C. for 17 days. After formation of the neuron network, this substrate was transferred to another dish (b). To this dish (b), a nerve cell medium (2 ml) was added. To this medium, BAPTA-1 (1 μl) and Cremophor (10 μl) were added and cultured at 37° C. for 1 hour. The culture supernatant was discarded and a buffer solution (145 mM NaCl+10 mM HEPES+8 mM Glucose+3 mM KCl+2 mM CaCl2+1 mM MgCl2, pH7.3): 2 ml was added. This was stored at room temperature away from the light until right before use and the Ca^2+ fluorescence intensity was measured (Ca^2+ imaging measurement) (FIG. 13(a)). After this, a buffer solution (500 μl) containing 10 μM concentration glutamic acid was added. After 2.5 minutes, time lapse measurement of Ca^2+ imaging was started (FIG. 13(b)). After 9.5 minutes, an antagonist mixture: 10 μl containing 2.5 mM D-AP5 and 2.5 mM CNQX was added. Furthermore, after 10.5 minutes, time lapse measurement of Ca^2+ imaging was performed (FIG. 13(c)).

Experiment [2] relates to nerve cells obtained by dissecting the cerebral cortex of a rat (neuron network). Description: Channel current measurement of a neuron network with the composite multi-channel type planar patch clamp device (whole-cell mode). As to conditions: applied membrane potential −20 mV; for increase of large area pulse channel current in the state of glutamic acid toxicity: CNQX (200 μM) and D-AP5 (200 μM) added together after 20 μM glutamic acid, about 60 minutes, FIG. 12(c). Type of experiment: cell-based. The text has this:
The composite multi-channel type planar patch clamp device (1b) of the present invention was used to conduct experiments showing that high throughput screening of drugs acting on a neural network is possible. At the cell fixing locations (24) of the Si substrate surface (2S) having approximately 2 micron size through holes (3) of the composite multi-channel type planar patch clamp device (1b) shown in FIG. 5, nerve cells (5) obtained by dissecting the cerebral cortex of a rat on day 17 of birth were seeded. The commercially available nerve cell medium (Sumitomo Bakelite) was added and the result cultured in a dish for 11 days to form a neuron network which was then observed by an optical microscope (FIG. 10). Next, the Si substrate (2) on which the nerve cells (5) were placed was set on the composite multi-channel type planar patch clamp device (1b) and the reservoir sections (22) of the first reservoir (6) were filled with the bath solution (145 mM NaCl+3 mM KCl+10 mM HEPES+2 mM CaCl2+8 mM Glucose+1 mM MgCl2.6H2O, pH7.3). […] A flat baseline was recorded without regard to the applied membrane potential. […] After measurement for about 60 minutes, to one reservoir section (22) of the first reservoir, a bath solution comprising the AMPA receptor antagonist 6-cyano-7-nitroquinoxaline-2,3-dione (CNQX)(200 μM) and NMDA receptor antagonist D-(−)-2-amino-5-phosphonopentanoic acid (D-AP5) (200 μM) dissolved in it was introduced and the channel current was again measured (FIG. 11C). […] To show these states clearer, the channel current of the applied membrane potential −20 mV was focused on and the area of each pulse-like wavelength observed was calculated. […] By filling the other reservoir sections (22) with other candidate drugs, making the valves (10) of the branch supply path (8b) and branch discharge path (9b) corresponding to the measured section the opened state, making the other valves (10) the closed state, and similarly measuring the channel current, it is possible to measure the effect of a candidate drug on the neuron network. […]

In the case of `N[C@@H](CCC(=O)O)C(=O)O` [glutamic acid], in experiment [1], the “concentration of Ca^2+ in the cells” value is recorded as “rise in a fluctuating manner”. The “large area pulse channel current” value in experiment [2] (glutamic acid added to first reservoir, final concentration 20 μM, FIG. 12(b)) is on record as “increases”.

For `N[C@H](CCCP(=O)(O)O)C(=O)O` [D-AP5, D-(−)-2-amino-5-phosphonopentanoic acid], the “increase of large area pulse channel current in the state of glutamic acid toxicity” value in experiment [2] was “substantially eliminated”.

Take `N#Cc1cc2c(cc1[N+](=O)[O-])=NC(=O)C(=O)N=2` [CNQX, 6-cyano-7-nitroquinoxaline-2,3-dione]: the “increase of large area pulse channel current in the state of glutamic acid toxicity” value in experiment [2] is recorded as “substantially eliminated”.

For the origin of these results see US9977009B2, “Planar patch clamp device and planar patch clamp system” (Japan Science and Technology Agency, priority 2013, dated 2018).
